Where a name gives a salt, the structure may show the parent alone. Read-outs that look alike come from different tables or passages of the source.
How the values were obtained:
Format in all cases: cell-based
[1] = tested on: Proteus mirabilis (ATCC 25933); experiment: MIC determination, microbroth dilution; details: ATCC25933
[2] = tested on: Stenotrophomonas maltophilia (ATCC 13637); experiment: MIC determination, microbroth dilution
[3] = tested on: Enterococcus faecalis (ATCC 33186); experiment: MIC determination, microbroth dilution
[4] = tested on: MRSA, Staphylococcus aureus (NRS70); experiment: MIC determination, microbroth dilution; details: Staphylococcus aureus (NRS70); read-out: MIC MRSA
E. coli K12 ΔtolC = experiment: microbe, parasite or virus in culture; details: Escherichia coli, read-out: MIC E.c. Δtolc
[5] = tested on: Neisseria gonorrhoeae (ATCC 49226); experiment: Disc diffusion assay; details: ATCC49226, 4 μg per disc, read-out: Zone of inhibition N.g.
[6] = tested on: Escherichia coli (ATCC 700926); experiment: MIC determination, microbroth dilution; details: ATCC700926; Escherichia coli (ATCC 700926); read-out: MIC E.c.
[7] = tested on: Neisseria meningitides (ATCC 13077); experiment: Disc diffusion assay; details: ATCC13077, 4 μg per disc, read-out: Zone of inhibition N.m.
Listeria monocytogenes = experiment: MIC determination (Table 6)
[8] = tested on: M. tuberculosis clinical isolates; experiment: microbe, parasite or virus in culture; details: Mycobacterium tuberculosis
[9] = tested on: Klebsiella pneumoniae (ATCC 33495); experiment: MIC determination, microbroth dilution; details: ATCC33495
Bacillus anthracis = experiment: microbe, parasite or virus in culture; details: read-out: MIC B.a.
[10] = tested on: Streptococcus pyogenes (ATCC 700294); experiment: MIC determination, microbroth dilution; details: ATCC700294; Streptococcus pyogenes (ATCC 700294); read-out: MIC S. py.
Moraxella catarrhalis = experiment: MIC determination (Table 6)
[11] = tested on: Haemophilus influenza (ATCC 49247); experiment: microbe, parasite or virus in culture; details: ATCC49247; Haemophilus influenza; 4 μg per disc; range of at least two experiments; read-out: Zone of inhibition H.i.
[12] = tested on: acinetobacter baumannii (ATCC 19606); experiment: MIC determination, microbroth dilution; details: ATCC19606
[13] = tested on: live vaccine strain (LVS) of Francisella tularensis; experiment: microbe, parasite or virus in culture; details: Francisella tularensis, read-out: MIC F.t.
[14] = tested on: Streptococcus pneumoniae (R6); experiment: MIC determination, microbroth dilution
[15] = tested on: Proteus vulgaris (ATCC 33420); experiment: MIC determination, microbroth dilution; details: ATCC33420
[16] = tested on: Pseudomonas aeruginosa (PA01); experiment: MIC determination, microbroth dilution
[17] = tested on: Streptococcus pneumoniae clinical isolates representing several serotypes; experiment: MIC determination, Streptococcus pneumoniae panel of clinical isolates (Table 7); details: Streptococcus pneumoniae
[18] = tested on: Bacillus anthracis, Sterne 34F2; experiment: microbe, parasite or virus in culture; details: STERNE34F2, read-out: MIC B.a.
[19] = tested on: Burkholderia cepacia (ATCC 25416); experiment: MIC determination, microbroth dilution; details: Burkholderia cepacia
[20] = tested on: Staphylococcus aureus (ATCC 29213); experiment: MIC determination, microbroth dilution
[21] = tested on: Bacillus subtilis (ATCC 23857); experiment: MIC determination, microbroth dilution; details: ATCC23857; Bacillus subtilis (ATCC 23857); read-out: MIC B.s.
Yersinia pestis = experiment: microbe, parasite or virus in culture; details: read-out: MIC Y.p.
[22] = tested on: Legionella pneumophila (ATCC 33153); experiment: microbe, parasite or virus in culture; details: ATCC33153, 72 h, read-out: Zone of inhibition L.p.
[23] = tested on: Neisseria gonorrhoeae (ATCC 49226); experiment: Agar MIC determination (Alamar Blue); details: ATCC49226, agar MIC, read-out: MIC N.g.
[24] = ATCC13637, Stenotrophomonas maltophilia (ATCC 13637), read-out: MIC S.m.
[25] = ATCC33186, Enterococcus faecalis (ATCC 33186), read-out: MIC E.f.
[26] = Streptococcus pneumoniae (R6), read-out: MIC S. pn.
[27] = ATCC25416, read-out: MIC B.c., Burkholderia cepacia (ATCC 25416)
[28] = ATCC25416, read-out: MIC B.c., Burkholderia cepacia, Table 6
[29] = ATCC29213, Staphylococcus aureus (ATCC 29213), read-out: MIC S.a.

How did the MIC [1] turn out when `CN[C@@H]1[C@H](O)[C@H](NC)[C@H]2O[C@]3(O)[C@H](O[C@@H]2[C@H]1O)O[C@H](C)C[C@@]3(O)CNCCc1ccccc1` [compound 6, 3′-(R)-3′-(phenethylaminomethyl)dihydrospectinomycin Trihydrochloride] was run?
The MIC was over 200 µg/mL.

And the MIC [2, 24]?
The MIC was 1.6 µg/mL.

What about the MIC [3, 25] of the same compound?
The MIC was 12.5 µg/mL.

And the MIC [4]?
Its MIC is 12.5 to 25 µg/mL.

What about the MIC (E. coli K12 ΔtolC) of the same compound?
The MIC was 3.1 to 6.3 µg/mL.

And the zone of inhibition at 4 µg/disc [5]?
The zone of inhibition at 4 µg/disc was 16 mm.

And the MIC [6]?
The MIC was 6.3 to 12.5 µg/mL.

What about the zone of inhibition at 4 µg/disc [7] of the same compound?
The zone of inhibition at 4 µg/disc was 16 mm.

And the MIC (Listeria monocytogenes)?
The MIC was 3.1 µg/mL.

And the MIC ([8]; H37RV, read-out: MIC H37Rv)?
The MIC was 1.6 µg/mL.

And the MIC ([8]; read-out: MIC TN022)?
Its MIC is 3.1 µg/mL.

What about the MIC ([8]; read-out: MIC TN026) of the same compound?
The MIC was 3.1 µg/mL.

What about the MIC [9] of the same compound?
The MIC was 25 to 50 µg/mL.

And the MIC (Bacillus anthracis)?
Its MIC is 6.3 to 12.5 µg/mL.

And the MIC [10]?
Its MIC is 3.1 µg/mL.

And the MIC (Moraxella catarrhalis)?
The MIC was 0.4 µg/mL.

And the zone of inhibition at 4 µg/disc [11]?
Its zone of inhibition at 4 µg/disc is 14 mm.

And the MIC [12]?
The MIC was over 200 µg/mL.

And the MIC [13]?
The MIC was 1.6 µg/mL.

What about the MIC [14, 26] of the same compound?
Its MIC is 3.1 µg/mL.

And the MIC ([14]; Streptococcus pneumoniae, S. pneumoniae R6, Drug Susceptible, read-out: MIC R6)?
The MIC was 6.3 µg/mL.

And the MIC [15]?
The MIC was 50 to 100 µg/mL.

And the MIC [16]?
Its MIC is at least 200 µg/mL.

And the MIC ([17]; BAA1407, S. pneumoniae BAA-1407, Macrolide Resistant, read-out: MIC BAA-1407)?
Its MIC is 12.5 µg/mL.

What about the MIC ([17]; S. pneumoniae A66.1x, Drug Susceptible, read-out: MIC A66.1x) of the same compound?
The MIC was 3.1 µg/mL.

And the MIC ([17]; S. pneumoniae BHN97x, Drug Susceptible, read-out: MIC BHN97x)?
Its MIC is 3.1 µg/mL.

And the MIC ([17]; S. pneumoniae D39X, Drug Susceptible, read-out: MIC D39X)?
The MIC was 3.1 µg/mL.

What about the MIC ([17]; S. pneumoniae Daw7, PenG Resistant, read-out: MIC Daw7) of the same compound?
Its MIC is 6.3 µg/mL.

What about the MIC ([17]; S. pneumoniae Daw8, PenG Resistant, read-out: MIC Daw8) of the same compound?
The MIC was 6.3 µg/mL.

What about the MIC ([17]; S. pneumoniae Daw9, PenG Resistant, read-out: MIC Daw9) of the same compound?
Its MIC is 6.3 µg/mL.

And the MIC ([17]; S. pneumoniae Daw62, PenG Resistant, read-out: MIC Daw62)?
Its MIC is 6.3 µg/mL.

And the MIC ([17]; S. pneumoniae Daw64, PenG Resistant, read-out: MIC Daw64)?
Its MIC is 6.3 µg/mL.

And the MIC ([17]; S. pneumoniae OVA6, Macrolide Resistant, read-out: MIC OVA6)?
Its MIC is 3.1 µg/mL.

And the MIC ([17]; S. pneumoniae T4X, Drug Susceptible, read-out: MIC T4X)?
The MIC was 3.1 µg/mL.

What about the MIC [18] of the same compound?
The MIC was 6.3 to 12.5 µg/mL.

And the MIC [19, 27]?
Its MIC is over 200 µg/mL.

And the MIC [19, 28]?
The MIC was over 200 µg/mL.

And the MIC ([20]; Staphylococcus aureus, ATCC29213, read-out: MIC S.a.)?
The MIC was 6.3 to 12.5 µg/mL.

And the MIC [21]?
The MIC was 1.6 µg/mL.

What about the MIC (Yersinia pestis) of the same compound?
The MIC was 200 µg/mL.

And the zone of inhibition at 4 µg/disc [22]?
Its zone of inhibition at 4 µg/disc is 36 mm.

With `CN[C@@H]1[C@H](O)[C@H](NC)[C@H]2O[C@]3(O)[C@H](O[C@@H]2[C@H]1O)O[C@H](C)C[C@@]3(O)CNCc1cccc(F)c1` [compound 15, 3′-(R)-3′-[(3-fluoro)benzylaminomethyl)]dihydrospectinomycin Trihydrochloride] as the compound, how does the MIC [1] read?
Its MIC is over 200 µg/mL.

What about the MIC [2, 24] of the same compound?
Its MIC is 12.5 µg/mL.

And the MIC ([3]; Enterococcus faecalis, ATCC33186, read-out: MIC E.f.)?
The MIC was 12.5 to 25 µg/mL.

And the MIC [4]?
Its MIC is 50 µg/mL.

And the MIC (E. coli K12 ΔtolC)?
The MIC was 6.3 to 12.5 µg/mL.

What about the zone of inhibition at 4 µg/disc [5] of the same compound?
The zone of inhibition at 4 µg/disc was 18 mm.

And the MIC [6]?
The MIC was 25 to 50 µg/mL.

What about the zone of inhibition at 4 µg/disc [7] of the same compound?
Its zone of inhibition at 4 µg/disc is 20 mm.

And the MIC (Listeria monocytogenes)?
The MIC was 6.3 µg/mL.

What about the MIC ([8]; H37RV, read-out: MIC H37Rv) of the same compound?
Its MIC is 25 µg/mL.

And the MIC [9]?
Its MIC is over 200 µg/mL.

And the MIC (Bacillus anthracis)?
Its MIC is 12.5 to 25 µg/mL.

And the MIC [10]?
The MIC was 3.1 µg/mL.

And the MIC (Moraxella catarrhalis)?
Its MIC is 1.6 µg/mL.

And the zone of inhibition at 4 µg/disc [11]?
The zone of inhibition at 4 µg/disc was 14 mm.

What about the MIC [12] of the same compound?
The MIC was over 200 µg/mL.

And the MIC [14, 26]?
The MIC was 3.1 µg/mL.

And the MIC [15]?
The MIC was 200 µg/mL.

And the MIC [23]?
Its MIC is 25 to 50 µg/mL.

And the MIC [16]?
Its MIC is at least 200 µg/mL.

What about the MIC [18] of the same compound?
Its MIC is 12.5 to 25 µg/mL.

What about the MIC [19, 27] of the same compound?
The MIC was at least 200 µg/mL.

And the MIC [19, 28]?
Its MIC is at least 200 µg/mL.

And the MIC [20, 29]?
The MIC was 100 µg/mL.

And the MIC [21]?
Its MIC is 3.1 to 6.3 µg/mL.

What about the MIC (Yersinia pestis) of the same compound?
The MIC was 100 µg/mL.

What about the zone of inhibition at 4 µg/disc [22] of the same compound?
The zone of inhibition at 4 µg/disc was 41 mm.

Which results are given for `CN[C@@H]1[C@H](O)[C@H](NC)[C@H]2O[C@]3(O)[C@H](O[C@@H]2[C@H]1O)O[C@H](C)C[C@@]3(O)CNCc1ccc(F)c(F)c1` [compound 12, 3′-(R)-3′-[(3,4-difluoro)benzylaminomethyl)]dihydrospectinomycin Trihydrochloride]?
MIC [1]: > 200 µg/mL; MIC ([2]; Stenotrophomonas maltophilia, ATCC13637, read-out: MIC S.m.): 12.5 to 25 µg/mL; MIC [3, 25]: 50 µg/mL; MIC [4]: 200 µg/mL; MIC (E. coli K12 ΔtolC): 12.5 to 25 µg/mL; zone of inhibition at 4 µg/disc [5]: 15 to 17 mm; MIC [6]: 25 to 50 µg/mL; zone of inhibition at 4 µg/disc [7]: 17 mm; MIC (Listeria monocytogenes): 6.3 to 12.5 µg/mL; MIC ([8]; H37RV, read-out: MIC H37Rv): 50 µg/mL; MIC [9]: > 200 µg/mL; MIC (Bacillus anthracis): 50 µg/mL; MIC [10]: 3.1 µg/mL; MIC (Moraxella catarrhalis): 6.3 to 12.5 µg/mL; zone of inhibition at 4 µg/disc [11]: 16 to 17 mm; MIC [12]: ≥ 200 µg/mL; MIC [13]: 3.1 to 6.3 µg/mL; MIC [14, 26]: 6.3 µg/mL; MIC [15]: > 200 µg/mL; MIC [23]: 25 to 50 µg/mL; MIC [16]: ≥ 200 µg/mL; MIC [18]: 50 µg/mL; MIC [19, 27]: ≥ 200 µg/mL; MIC [19, 28]: ≥ 200 µg/mL; MIC [20, 29]: 100 to 200 µg/mL; MIC [21]: 25 to 50 µg/mL; MIC (Yersinia pestis): 200 µg/mL

— US10266544B2, “Aryl substituted aminomethyl spectinomycin analogs as antibacterial agents” (ST. JUDE CHILDREN'S RESEARCH HOSPITAL, INC., priority 2013, dated 2019)
